Test results as given in US8354451B2, “Treatment of microbial infections with compounds that inhibit 4-hydroxyphenylpyruvate dioxygenase” (The UWM Research Foundation, Inc., priority 2009, dated 2013).
Read-outs that look alike come from different tables or passages of the source.

Assays:
[1] = system: B. cenocepacia C5424; format: cell-based, Burkholderia cenocepacia; details: 24 h culture, OD597
[2] = system: Pseudomonas aeruginosa; assay: Murine model of systemic infection, intraperitoneal; details: 1 mg/Kg NTBC daily

O=C1CCCC(=O)C1C(=O)c1ccc(C(F)(F)F)cc1[N+](=O)[O-] [NTBC, 2-(2-nitro-4-trifluoromethylbenzoyl)-1,3-cyclohexanedione]
pigment production relative to untreated C5424 ([1]; 10 μM NTBC): 31.95±3.96% | pigment production relative to untreated C5424 ([1]; 100 μM NTBC): 26.89±0.59% | time to return to normal growth (weight) after administration [2]: ≤ 24 h | survival rate versus infected untreated mice ([2]; 3.2×10^8 CFU P. aeruginosa): three-fold higher survival rate
